These results are taken from paper PMC5428354, “Screening of a natural compound library identifies emodin, a natural compound from Rheum palmatum Linn that inhibits DPP4” (PeerJ, 2017).

In this assay the target is DPP4 (Homo sapiens, UniProt P27487). Description: DPP4 activity assay (DPP4 inhibitor screening assay kit, Cayman).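 As to all read-outs here: fluorescence read at excitation 360 nm and emission 460 nm after the enzyme reaction ran 30 min at 37 °C in a 96-well plate.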 It is filed as biochemical. On the set-up: purchased Cayman Chemical, Ann Arbor, MI, USA. To be noted: 10 µM, control mean 100.0; for remaining activity at 10 µM: 0.5 h.
[1] abbreviates: Figure 1A raw data, read-out: DPP4 activity in library screen, Exp 1.
Setting [2] is: Figure 1A raw data, read-out: DPP4 activity in library screen, Exp 2.
Setting [3] is: Figure 1A raw data, read-out: DPP4 activity in library screen, Exp 3.
[4] abbreviates: mean of Exp 1-3, read-out: DPP4 activity in library screen, Mean.

Where two headings read alike, the source gives them in different places.

Sequence of DPP4 (P27487 whole entry): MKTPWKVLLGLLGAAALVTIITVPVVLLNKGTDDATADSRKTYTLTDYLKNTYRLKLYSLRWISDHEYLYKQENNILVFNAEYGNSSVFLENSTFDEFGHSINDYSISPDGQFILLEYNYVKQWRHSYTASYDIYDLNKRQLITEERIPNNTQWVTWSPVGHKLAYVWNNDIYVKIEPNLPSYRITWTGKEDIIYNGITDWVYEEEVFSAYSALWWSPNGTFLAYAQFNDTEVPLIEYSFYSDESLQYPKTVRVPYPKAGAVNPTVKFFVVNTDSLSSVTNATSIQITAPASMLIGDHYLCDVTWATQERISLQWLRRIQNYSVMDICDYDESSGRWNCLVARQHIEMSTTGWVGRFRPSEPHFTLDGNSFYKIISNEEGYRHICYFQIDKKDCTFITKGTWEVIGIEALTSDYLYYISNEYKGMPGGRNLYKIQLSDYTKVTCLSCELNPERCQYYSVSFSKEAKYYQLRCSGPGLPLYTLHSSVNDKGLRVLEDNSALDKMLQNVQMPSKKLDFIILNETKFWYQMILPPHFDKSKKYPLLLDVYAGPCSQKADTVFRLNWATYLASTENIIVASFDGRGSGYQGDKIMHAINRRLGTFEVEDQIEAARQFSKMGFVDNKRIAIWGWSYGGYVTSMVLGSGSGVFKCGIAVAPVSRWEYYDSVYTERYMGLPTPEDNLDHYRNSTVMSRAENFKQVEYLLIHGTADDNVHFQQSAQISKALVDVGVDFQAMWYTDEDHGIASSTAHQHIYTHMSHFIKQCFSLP

For the compound `O=C([O-])C(O)Cc1ccc(O)c(O)c1.[Na+]` (stereo not shown) [Sodium Danshensu], under “Figure 1A raw data”, the “DPP4 activity in library screen, Exp 1” value was found to be 95.8; the “DPP4 activity in library screen, Exp 2” value is 90.3; the “DPP4 activity in library screen, Exp 3” value is 90.2. The “DPP4 activity in library screen, Mean” value (mean of Exp 1-3) turned out to be 92.1.

Consider `O=C(O)c1cc(=O)[nH]c(=O)[nH]1` [Orotic acid (6-Carboxyuracil), Orotic acid], for which the remaining activity at 10 µM came to 83.5% under setting [1], 88% under setting [2], 95.5% under setting [3] and 89% under setting [4].

For `CC[C@H](CC[C@@H](C)[C@H]1CC[C@H]2[C@@H]3CC=C4C[C@@H](O)CC[C@]4(C)[C@H]3CC[C@]12C)C(C)C` [beta-sitosterol], the remaining activity at 10 µM under setting [1] turned out to be 98.6%, the remaining activity at 10 µM under setting [2] is 92.3%, the remaining activity at 10 µM under setting [3] stood at 104% and the remaining activity at 10 µM under setting [4] amounted to 98.2%.

With `CNCC(O)c1ccc(O)cc1` (stereo not shown) [Synephrine], the remaining activity at 10 µM runs as follows: under setting [1], 98.7%; under setting [2], 76.9%; under setting [3], 87.7%; under setting [4], 87.8%.

Regarding `O.O=c1c(O)c(-c2ccc(O)cc2O)oc2cc(O)cc(O)c12` [Morin Hydrate], under “Figure 1A raw data”, the “DPP4 activity in library screen, Exp 1” value is 79.5; the “DPP4 activity in library screen, Exp 2” value stood at 73.7; the “DPP4 activity in library screen, Exp 3” value stood at 79.4. Also, where the note is “mean of Exp 1-3”, the “DPP4 activity in library screen, Mean” value turned out to be 77.5.

In the case of `C[C@@H]1O[C@@H](OC[C@H]2O[C@@H](Oc3c(-c4ccc(OCCO)c(OCCO)c4)oc4cc(OCCO)cc(O)c4c3=O)[C@H](O)[C@@H](O)[C@@H]2O)[C@H](O)[C@H](O)[C@H]1O` [Troxerutin], the remaining activity at 10 µM reads like this: under setting [1], 69.8%; under setting [2], 62.2%; under setting [3], 57.2%; under setting [4], 63.1%.

`OCc1c[nH]c2ccccc12` [Indole-3-carbinol]: the remaining activity at 10 µM under setting [1] was determined as 103%, the remaining activity at 10 µM under setting [2] came out at 92%, the remaining activity at 10 µM under setting [3] was 88.7% and the remaining activity at 10 µM under setting [4] was determined as 94.6%.

With `C[C@H]1COC2=C1C(=O)C(=O)c1c2ccc2c1CCCC2(C)C` [Cryptotanshinone], the remaining activity at 10 µM under setting [1] stood at 60.3%, the remaining activity at 10 µM under setting [2] was found to be 66.5%, the remaining activity at 10 µM under setting [3] came to 58.2% and the remaining activity at 10 µM under setting [4] is 61.7%.

Take `Cc1cc2c(C(C)C)c(O)c(O)c(C=O)c2c(O)c1-c1c(C)cc2c(C(C)C)c(O)c(O)c(C=O)c2c1O` [Gossypol]: the remaining activity at 10 µM was determined as 54.6% under setting [1], 59.8% under setting [2], 51.6% under setting [3] and 55.3% under setting [4].

In the case of `C[C@H]1[C@H](OC(=O)CCC(=O)O)O[C@@H]2O[C@@]3(C)CC[C@H]4[C@H](C)CC[C@@H]1[C@@]24OO3` [Artesunate], the remaining activity at 10 µM turned out to be 95.1% under setting [1], 99% under setting [2], 87% under setting [3] and 93.7% under setting [4].

As to `Oc1cc2c(cc1O)[C@@H]1c3ccc(O)c(O)c3OC[C@]1(O)C2` [Hematoxylin], the remaining activity at 10 µM is, setting by setting: under setting [1], 70.1%; under setting [2], 72%; under setting [3], 84.9%; under setting [4], 75.7%.

`C=C1CC[C@@H]2[C@](C)(CO)[C@H](O)CC[C@@]2(C)[C@@H]1C/C=C1/C(=O)OC[C@H]1O` [Andrographolide]: the remaining activity at 10 µM under setting [1] came out at 103%, the remaining activity at 10 µM under setting [2] was found to be 100%, the remaining activity at 10 µM under setting [3] amounted to 96.8% and the remaining activity at 10 µM under setting [4] was 100%.

With `COc1c(O)cc2c(c1O)[C@@H]1O[C@H](CO)[C@@H](O)[C@H](O)[C@H]1OC2=O` [Bergenin], the remaining activity at 10 µM turned out to be 114% under setting [1], 102% under setting [2], 73.5% under setting [3] and 96.3% under setting [4].

With `O=c1c(O)c(-c2ccc(O)c(O)c2)oc2cc(O)cc(O)c12` [Quercetin Dihydrate], for the setting “Figure 1A raw data”, the “DPP4 activity in library screen, Exp 1” value is given as 59.9; the “DPP4 activity in library screen, Exp 2” value is given as 57; the “DPP4 activity in library screen, Exp 3” value was 57.1. Moreover, the “DPP4 activity in library screen, Mean” value (mean of Exp 1-3) came to 58.0.

As to `O=C(O)C1=C[C@@H](O)[C@@H](O)[C@H](O)C1` [Shikimic Acid], the remaining activity at 10 µM is 87.3% under setting [1], 80.7% under setting [2], 84.9% under setting [3] and 84.3% under setting [4].

`COc1ccc(-c2oc3c(CC=C(C)C)c(O[C@@H]4O[C@H](CO)[C@@H](O)[C@H](O)[C@H]4O)cc(O)c3c(=O)c2O[C@@H]2O[C@@H](C)[C@H](O)[C@@H](O)[C@H]2O)cc1` [Icariin]: the remaining activity at 10 µM under setting [1] turned out to be 76%, the remaining activity at 10 µM under setting [2] is 74.5%, the remaining activity at 10 µM under setting [3] is 78.7% and the remaining activity at 10 µM under setting [4] is 76.4%.

Consider `CC[C@@]1(O)C(=O)OCc2c1cc1n(c2=O)Cc2cc3cc(O)ccc3nc2-1` [(S)-10-Hydroxycamptothecin], for which the remaining activity at 10 µM under setting [1] amounted to 87.4%, the remaining activity at 10 µM under setting [2] was determined as 77.6%, the remaining activity at 10 µM under setting [3] was 85.7% and the remaining activity at 10 µM under setting [4] came to 83.6%.

Regarding `CC(C)Oc1ccc2c(=O)c(-c3ccccc3)coc2c1` [Ipriflavone (Osteofix), Ipriflavone], the remaining activity at 10 µM is, setting by setting: under setting [1], 85.8%; under setting [2], 99.7%; under setting [3], 98%; under setting [4], 94.5%.

Turning to `C=CCc1ccc(O)c(-c2ccc(O)c(CC=C)c2)c1` [Honokiol], the remaining activity at 10 µM came to 106% under setting [1], 94.1% under setting [2], 105% under setting [3] and 102% under setting [4].

Turning to `Cc1c(C(=O)NCCO)[n+]([O-])c2ccccc2[n+]1[O-]` [Olaquindox], the remaining activity at 10 µM by setting is: under setting [1], 77.8%; under setting [2], 99.1%; under setting [3], 116%; under setting [4], 97.8%.

Take `O=C(/C=C/C=C/c1ccc2c(c1)OCO2)N1CCCCC1` [Piperine]: the remaining activity at 10 µM reads like this: under setting [1], 67.7%; under setting [2], 60.2%; under setting [3], 77.8%; under setting [4], 68.6%.

Turning to `C[C@H](NCc1ccc(OCc2cccc(F)c2)cc1)C(N)=O` [Safinamide], the remaining activity at 10 µM runs as follows: under setting [1], 93.4%; under setting [2], 98.3%; under setting [3], 118%; under setting [4], 103%.

For `COc1ccc([C@@]23Oc4cc(OC)cc(OC)c4[C@]2(O)[C@H](O)[C@H](C(=O)N(C)C)[C@H]3c2ccccc2)cc1` [Rocaglamide], the remaining activity at 10 µM under setting [1] was found to be 100%, the remaining activity at 10 µM under setting [2] came out at 100%, the remaining activity at 10 µM under setting [3] stood at 94.9% and the remaining activity at 10 µM under setting [4] was 98.5%.

As to `O=C1CCC[C@@H]2[C@H]3CCCN4CCC[C@@H](CN12)[C@@H]34` [(+)-Matrine], for the setting “Figure 1A raw data”, the “DPP4 activity in library screen, Exp 1” value is given as 101.6; the “DPP4 activity in library screen, Exp 2” value worked out at 98; the “DPP4 activity in library screen, Exp 3” value worked out at 94.4. Under “mean of Exp 1-3”, the “DPP4 activity in library screen, Mean” value worked out at 98.0.

On to `C/C=C1/[C@H](O[C@@H]2O[C@H](CO)[C@@H](O)[C@H](O)[C@H]2O)OC=C(C(=O)OC)[C@H]1CC(=O)OCCc1ccc(O)c(O)c1` [Oleuropein], for which the remaining activity at 10 µM by setting is: under setting [1], 117%; under setting [2], 101%; under setting [3], 93.4%; under setting [4], 104%.

Regarding `O=C(/C=C/c1ccc(O)cc1)c1ccc(O)cc1O` [Isoliquiritigenin], the remaining activity at 10 µM under setting [3] came out at 31.6%.

Regarding `c1cc2c(cc1[C@H]1OC[C@H]3[C@@H]1CO[C@@H]3c1ccc3c(c1)OCO3)OCO2` [Sesamin], the remaining activity at 10 µM reads like this: under setting [1], 93.7%; under setting [2], 90%; under setting [3], 85.5%; under setting [4], 89.7%.

On to `C=CCc1ccc(O)c(-c2cc(CC=C)ccc2O)c1` [Magnolol], for which the remaining activity at 10 µM came to 97.6% under setting [1], 108% under setting [2], 83.9% under setting [3] and 96.4% under setting [4].

In the case of `c1coc(CNc2ncnc3[nH]cnc23)c1` [Kinetin], the remaining activity at 10 µM under setting [1] stood at 97.6%, the remaining activity at 10 µM under setting [2] was 93.8%, the remaining activity at 10 µM under setting [3] turned out to be 93% and the remaining activity at 10 µM under setting [4] came out at 94.8%.

Take `C[C@@H]1CC[C@@]2(OC1)O[C@H]1C[C@H]3[C@@H]4CC=C5C[C@@H](O[C@@H]6O[C@H](CO)[C@@H](O[C@@H]7O[C@@H](C)[C@H](O)[C@@H](O)[C@H]7O)[C@H](O)[C@H]6O[C@@H]6O[C@@H](C)[C@H](O)[C@@H](O)[C@H]6O)CC[C@]5(C)[C@H]4CC[C@]3(C)[C@H]1[C@@H]2C` [Dioscin]: the remaining activity at 10 µM was 100% under setting [1], 100% under setting [2], 79.1% under setting [3] and 93.1% under setting [4].

In the case of `O=c1c2ccccc2oc2ccccc12` [Xanthone], the remaining activity at 10 µM reads like this: under setting [1], 88.9%; under setting [2], 79.9%; under setting [3], 77.7%; under setting [4], 82.2%.
